According to ChEMBL document CHEMBL5223185, “Squaramide Tethered Clindamycin, Chloroquine, and Mortiamide Hybrids: Design, Synthesis, and Antimalarial Activity” (ACS Med Chem Lett, 2023):
Square brackets hold non-standard residues; d marks the D form. Peptide text beside a SMILES is read from it.

Legend:
Plasmodium falciparum [1] = test: Antiplasmodial activity against sorbitol-synchronized post ring stage plasmodium falciparum 3D7 assessed as inhibition of parasite growth incubated for 72 to 96 hrs by parasite susceptibility based microplate reader assay; assay type: functional, organism-based
[2] = Fold resistance,ratio of IC50 for antiplasmodial activity against chloroquine, mefloquine and pyrimethamine resistant plasmodium falciparum Dd2 to IC50 for antiplasmodial activity against plasmodium falciparum 3D7; assay type: functional
[3] = Hemolytic activity in human RBC assessed as hemolysis at 0.39 to 12.8 uM incubated for 72 hrs by microplate reader assay; assay type: toxicity, cell-based; details: erythrocyte, dose 0.39-12.8 µM
Plasmodium falciparum [4] = test: Antiplasmodial activity against sorbitol-synchronized post ring stage chloroquine, mefloquine and pyrimethamine resistant plasmodium falciparum Dd2 assessed as inhibition of parasite growth incubated for 72 to 96 hrs by parasite susceptibility based microplate reader assay; assay type: functional, organism-based

Row | SMILES | IC50 (Plasmodium falciparum [1]) [nM] | Ratio [2] | Activity [3] | IC50 (Plasmodium falciparum [4]) [nM]
1 | CCC[C@@H]1C[C@@H](C(=O)N[C@@H]([C@H]2O[C@H](SC)[C@H](O)[C@@H](O)[C@H]2O)[C@H](C)Cl)N(C)C1 [CLINDAMYCIN] | 8.81 | – | – | –
2 | CCC[C@@H]1C[C@@H](C(=O)N[C@@H]([C@H]2O[C@H](SC)[C@H](O)[C@@H](O)[C@H]2O)[C@@H](C)N=[N+]=[N-])N(C)C1 | 29.4 | 1 | Non-Toxic | 28.6
3 | CCN(CCCC(C)Nc1ccnc2cc(Cl)ccc12)CCNc1c(NCCN(CC)CCCC(C)Nc2ccnc3cc(Cl)ccc23)c(=O)c1=O (configuration not stated) | 31.3 | 2.6 | Non-Toxic | 80.9
4 | CCN(CCCC(C)Nc1ccnc2cc(Cl)ccc12)CCN=[N+]=[N-] (configuration not stated) | 2.8 | 6.5 | Non-Toxic | 18
5 | CC[C@@H](C)[C@H]1NC(=O)[C@@H](C)NC(=O)[C@H](Cc2ccccc2)NC(=O)[C@@H](CC(C)C)NC(=O)[C@@H](C(C)C)NC(=O)[C@H](Cc2ccccc2)NC(=O)[C@@H]([C@H](C)CC)NC1=O (cyclo(F[dA][dI][dI]F[dV][dL])) | 1310 | 0.7 | – | 940
6 | CCN(CCN)CCCC(C)Nc1ccnc2cc(Cl)ccc12 (configuration not stated) | 16.7 | 17.1 | Non-Toxic | 285
7 | CCN(CCCC(C)Nc1ccnc2cc(Cl)ccc12)CCNc1c(NCCCC[C@H](NC(C)=O)C(=O)OC)c(=O)c1=O (some centres not stated) | 223 | 3 | Non-Toxic | 680
8 | CCC[C@@H]1CC(C(=O)N[C@@H](C2O[C@H](SC)[C@H](O)[C@@H](O)[C@H]2O)[C@@H](C)Nc2c(NCCN(CC)CCCC(C)Nc3ccnc4cc(Cl)ccc34)c(=O)c2=O)N(C)C1 (some centres not stated) | 129 | 7.8 | Non-Toxic | 1010
9 | CCOc1c(NCCN(CC)CCCC(C)Nc2ccnc3cc(Cl)ccc23)c(=O)c1=O (configuration not stated) | 63.8 | 16.6 | Non-Toxic | 1060
